Assay results: patent publication US9510597B2, “Microbicidal composition” (Dow Global Technologies LLC, priority 2012, dated 2016)
Structures can show the parent of a compound that is named as a salt.

Tests used:
Format in all cases: cell-based
[1] = system: Candida albicans (ATCC #10231); assay: Minimum Kill Concentration (MKC) repeated challenge test, yeast
Method: (§1) The synergism of the biocides combination of the present invention was determined using the method described by Kull, F. C, et. all in Applied Microbiology 9:538-541 (1961). […] In this invention, two different approaches of synergistic study were conducted. One synergistic study is determined based on the minimum inhibitory concentration (MIC), the lowest concentration of a biocide prevents the growth of tested microorganism under a specific set of conditions. The second study was based on three to four consecutive challenge testing. This test was conducted to take biocide mode of action and speed of kill into a consideration.
(§2) MKC evaluations were utilized to determine the synergy of MBIT with the co-biocides DXN (6-Acetoxy-2,4-dimethyl-m-dioxane) and THNM (2-Hydroxymethyl-2-nitro-1,3-propanediol) due to the inability to evaluate these particular biocide chemistries in MIC evaluations. The following test methods were designed for the evaluation of the aforementioned synergistic combinations. The results can be found in Tables 7 and 8.
Testing began (day 0) by applying sterile water, supplemented with 2.0% yeast malt extract broth, to each well of a 96-well microtiter plate. […] After 48 hours of incubation at 30° C., yeast kill (to a maximum detection limit of 5×10^1 CFU/mL) was visually determined by the presence or lack of turbidity within the YMB.

[2] = system: Aspergillus niger (ATCC #16404); assay: Minimum Kill Concentration (MKC) repeated challenge test, mold
Method: as §1, §2
Testing began (day 0) by applying sterile water, supplemented with 2.0% potato dextrose broth, to each well of a 96-well microtiter plate. […] After 48-96 hours of incubation at 30° C., mold kill (to a maximum detection limit of 5×10^1 spores/mL) was visually determined by the presence or lack of turbidity within the PDB.

[3] = system: Escherichia coli (ATCC #8739); assay: Minimum Kill Concentration (MKC) repeated challenge test, bacteria; settings: for MIC: Escherichia coli; for Minimum Inhibitory Concentration (ppm) MBIT: MBIT alone (1:0) or MBIT portion of the mixture
Method: as §1, §2
Testing began (day 0) by applying sterile water, supplemented with 2.0% TSB, to each well of a 96-well microtiter plate. Various concentrations of MBIT alone, the co-biocide alone, or combinations of both biocide chemistries, were added to individual wells of the microtiter plate followed by addition of Escherichia coli (ATCC #8739) at a final concentration of 5×10^4 CFU/mL. Equivalent inoculations were applied on days 7, 14 and 21 of the study. To determine the extent of bacterial kill, an aliquot (20 μl) of each sample was taken on days 1, 7, 8, 14, 15, 21, 22 and transferred to tryptic soy broth (180 μl). After 48 hours of incubation at 30° C., bacterial kill (to a maximum detection limit of 5×10^1 CFU/mL) was visually determined by the presence or lack of turbidity within the TSB.

[4] = system: Aspergillus niger (ATCC #16404); assay: Minimum Inhibitory Concentration (MIC) synergy study, mold; settings: for Minimum Inhibitory Concentration (ppm) MBIT: A. niger, MBIT alone (1:0) or MBIT portion of the mixture
Method: as §1
(§3) The microorganisms tested are Escherichia coli (E. coli, ATCC #8739), yeast, Candida albicans (c. albicans, ATCC #10231) and mold, Aspergillus niger (a. niger, ATCC #16404). The final concentration of microorganisms in the tested media is about 10^4 cfu/mL
(§4) MBIT synergy with a secondary biocide was determined by evaluating the minimum biocide or biocide blend concentration required to inhibit microbial growth. All studies were conducted using a 96 well microtiter plate format. For all studies, 200 μl of microbial growth media, containing various concentrations of MBIT alone, the secondary biocide alone, or combinations of both biocide chemistries, was added to individual wells of a microtiter plate. Specifically, Tryptic Soy Broth (TSB) was utilized for bacteria (E. coli, ATCC #8739), Yeast Malt Extract Broth (YMB) for yeast (Candida albicans, ATCC #10231) and Potato Dextrose Broth (PDB) for mold (Aspergillus niger, ATCC #16404). Test organisms, at a final concentration of 10^4 CFU/mL or 10^4 spores/mL, were applied to each well in parallel experiments to initiate the MIC evaluations. Growth medium containing no biocide was utilized as a control in each experimental setup to confirm the growth viability of each organism. Eight concentrations (2-fold dilutions) of each individual biocide were evaluated in the microbial growth inhibition studies in addition to the 64 possible combinations of these biocide concentrations. Evaluation of the individual biocide concentrations is required to achieve an inhibitory concentration end point for synergy index calculation. […] Individual wells were scored as growth or no growth based on visual organism growth turbidity.

[5] = system: Candida albicans (ATCC #10231); assay: Minimum Inhibitory Concentration (MIC) synergy study, yeast; settings: for MIC: Candida albicans; for Minimum Inhibitory Concentration (ppm) MBIT: C. albicans, MBIT alone (1:0) or MBIT portion of the mixture
Method: as §1, §3, §4

[6] = system: Escherichia coli (ATCC #8739); assay: Minimum Inhibitory Concentration (MIC) synergy study, bacteria; settings: for Minimum Inhibitory Concentration (ppm) MBIT: E. coli, MBIT alone (1:0) or MBIT portion of the mixture
Method: as §1, §3, §4

CC(=O)OC1CC(C)OC(C)O1 (stereo not drawn) [DXN, 6-Acetoxy-2,4-dimethyl-m-dioxane]
MIC ([1]; Candida albicans, ATCC10231, 504 h, Table 7, kill of C. albicans at day 21, DXN alone (0:1) or DXN portion of the mixture, read-out: Minimum Inhibitory Concentration (ppm) DXN): 2000 µg/mL
MIC ([2]; Aspergillus niger, ATCC16404, 504 h, Table 7, kill of A. niger at Day 21, DXN alone (0:1) or DXN portion of the mixture, read-out: Minimum Inhibitory Concentration (ppm) DXN): 750 µg/mL
MIC ([3]; ATCC8739, 168 h, Table 7, kill of E. coli at day 7, DXN alone (0:1) or DXN portion of the mixture, read-out: Minimum Inhibitory Concentration (ppm) DXN): 875 µg/mL

[Na+].[O-]c1ccccc1-c1ccccc1 [NaOPP, sodium ortho-phenylphenate]
Minimum Inhibitory Concentration (ppm) NaOPP ([4]; Table 4, A. niger, NaOPP alone (0:1) or NaOPP portion of the mixture): 200 ppm

CCCCCCCCCCCCNC(=N)N [DDG, Dodecylguanidine hydrochloride]
MIC ([5]; ATCC10231, read-out: Minimum Inhibitory Concentration (ppm) DDG): 2000 µg/mL
MIC ([4]; Aspergillus niger, ATCC16404, read-out: Minimum Inhibitory Concentration (ppm) DDG): 750 µg/mL
MIC ([6]; Escherichia coli, ATCC8739, read-out: Minimum Inhibitory Concentration (ppm) DDG): 875 µg/mL

Cn1sc2ccccc2c1=O [MBIT, N-methyl-1,2-benzisothiazolin-3-one]
Minimum Inhibitory Concentration (ppm) MBIT ([5]; Table 1, MBIT/DDG study): 6.25 ppm
Minimum Inhibitory Concentration (ppm) MBIT ([5]; Table 2, MBIT/PHMB study): 0.3125 ppm
Minimum Inhibitory Concentration (ppm) MBIT ([5]; Table 5, MBIT/Terbutryn study): 3 ppm
Minimum Inhibitory Concentration (ppm) MBIT ([1]; Table 7, MBIT/DXN study, kill of C. albicans at day 21, MBIT alone (1:0) or MBIT portion of the mixture): 6.25 ppm
Minimum Inhibitory Concentration (ppm) MBIT ([2]; Table 7, MBIT/DXN study, kill of A. niger at Day 21, MBIT alone (1:0) or MBIT portion of the mixture): 10 ppm
Minimum Inhibitory Concentration (ppm) MBIT ([4]; Table 1, MBIT/DDG study): 10 ppm
Minimum Inhibitory Concentration (ppm) MBIT ([4]; Table 3, MBIT/NaPT study): 6.3 ppm
Minimum Inhibitory Concentration (ppm) MBIT ([4]; Table 4, MBIT/NaOPP study): 6.3 ppm
Minimum Inhibitory Concentration (ppm) MBIT ([6]; Table 1, MBIT/DDG study): 62.5 ppm
Minimum Inhibitory Concentration (ppm) MBIT ([6]; Table 2, MBIT/PHMB study): 12.5 ppm
Minimum Inhibitory Concentration (ppm) MBIT ([6]; Table 3, MBIT/NaPT study): 25 ppm
Minimum Inhibitory Concentration (ppm) MBIT ([3]; Table 7, MBIT/DXN study, kill of E. coli at day 7): 62.5 ppm
Minimum Inhibitory Concentration (ppm) MBIT ([3]; Table 8, MBIT/THNM study, kill of E. coli at day 21): 125 ppm

CCNc1nc(NC(C)(C)C)nc(SC)n1 [Terbutryn]
MIC ([5]; ATCC10231, Table 5, C. albicans, Terbutryn alone (0:1) or Terbutryn portion of the mixture, read-out: Minimum Inhibitory Concentration (ppm) Terbutryn): > 20000 µg/mL

[Na+].[O-][n+]1ccccc1[S-] [NaPT, Sodium pyrithione]
Minimum Inhibitory Concentration (ppm) NaPT ([4]; Table 3, A. niger, NaPT alone (0:1) or NaPT portion of the mixture): 25 ppm
Minimum Inhibitory Concentration (ppm) NaPT ([6]; Table 3, E. coli, NaPT alone (0:1) or NaPT portion of the mixture): 2.5 ppm

O=[N+]([O-])C(CO)(CO)CO [THNM, 2-Hydroxymethyl-2-nitro-1,3-propanediol]
MIC ([3]; ATCC8739, 504 h, Table 8, kill of E. coli at day 21, THNM alone (0:1) or value printed for the mixture, read-out: Minimum Inhibitory Concentration (ppm) THMN): 125 µg/mL
